From article PMC3818701 (The Pediatric infectious disease journal, 2013)
Read-outs that look alike come from different tables or passages of the source. Numbered stars: 1 amine (or outer) side, 2 acyl side, 3 side chain; on linkers, the order of the positions; unused ones are H or OH. Bridge positions count the residues as written; N and C are the ends. Square brackets hold non-standard residues; d marks the D form. Peptide text beside a SMILES is read from it. * marks the point of attachment. hTyr(3S-OH,4S-OH,3'-OSO3H) = N[C@H](C(=O)O)[C@H](O)[C@@H](O)c1ccc(O)c(OS(=O)(=O)O)c1; Orn(4R-OH,5R-OH) = O=C([C@H](C[C@@H](O)[C@@H](O)N[*:3])N[*:1])[*:2]; Pro(3S-OH,4S-Me) = C[C@H]1CN[C@H](C(=O)O)[C@H]1O; X1 = CCCCCOc1ccc(-c2cc(-c3ccc(C(=O)*)cc3)no2)cc1; Gln(3R-OH) = NC(=O)C[C@@H](O)[C@H](N)C(=O)O; Hyp = O=C(O)[C@@H]1C[C@@H](O)CN1

Experiments:
[1] = cited from earlier work
[2] = cited from earlier work; for Cmax / Mean weight-adjusted CLss: children; for Mean AUCtau: febrile, neutropenic children with deep mycoses
[3] = Plasma micafungin pharmacokinetics on day 7, Studies 2101 and 2102; assay type: in vivo, human; conditions: for Cmax / tmax / AUCtau / CLss / CLss/wt: day 7 plasma
[4] = Safety assessments; assay type: in vivo, human; conditions: for AE leading to discontinuation / Any AE / Any SAE / Deaths: SAF, number of children (%)
[5] = adults, cited from earlier work
[6] = pooled analysis of Phase I, II, III trials, 296 children
[7] = Study 2101, 3 mg/kg i.v. once daily, 6–11 years (n = 4), min–max
[8] = Study 2101, 3 mg/kg i.v. once daily, 12–16 years (n = 8), median
[9] = Study 2101, 3 mg/kg i.v. once daily, 12–16 years (n = 8), min–max
[10] = Study 2101, 4.5 mg/kg i.v. once daily, 2–5 years (n = 8), median
[11] = Study 2101, 4.5 mg/kg i.v. once daily, 2–5 years (n = 8), min–max
[12] = Study 2101, 4.5 mg/kg i.v. once daily, 6–11 years (n = 3), median
[13] = Study 2101, 4.5 mg/kg i.v. once daily, 6–11 years (n = 3), min–max
[14] = Study 2101, 4.5 mg/kg i.v. once daily, 12–16 years (n = 1), mean
[15] = Study 2101, 4.5 mg/kg i.v. once daily, 12–16 years (n = 1), median
[16] = Study 2101, 3 mg/kg, 6–11 years (n = 13)
[17] = Study 2101, 3 mg/kg, 12–16 years (n = 12)
[18] = Study 2101, 4.5 mg/kg, 2–5 years (n = 31)
[19] = Study 2101, 4.5 mg/kg, 6–11 years (n = 20)
[20] = Study 2102, 4.5 mg/kg, 4 months–<2 years (n = 9)

SMILES: CCCCCOc1ccc(-c2cc(-c3ccc(C(=O)N[C@H]4C[C@@H](O)[C@@H](O)NC(=O)[C@@H]5[C@@H](O)[C@@H](C)CN5C(=O)[C@H]([C@H](O)CC(N)=O)NC(=O)[C@H]([C@H](O)[C@@H](O)c5ccc(O)c(OS(=O)(=O)O)c5)NC(=O)[C@@H]5C[C@@H](O)CN5C(=O)[C@H]([C@@H](C)O)NC4=O)cc3)no2)cc1 [micafungin] (X1-[Orn(4R-OH,5R-OH)]T[Hyp][hTyr(3S-OH,4S-OH,3'-OSO3H)][Gln(3R-OH)][Pro(3S-OH,4S-Me)]; lactam 1-C)
- Overall incidence of liver function abnormalities ([1]; pooled analysis of 3028 adult and pediatric patients): ≤ 3%
- Adverse events (AEs) [1, 6]: 92%
- Serious adverse events (SAEs) [1, 6]: ~34%
- AEs related to micafungin treatment ([1]; pooled analysis, 296 children): 27%
- Related AEs/SAEs leading to discontinuation of therapy ([1]; pooled analysis, 296 children): 2%
- SAEs related to micafungin treatment ([1]; pooled analysis, n = 14/296 children): 5%
- Cmax ([2]; 3 mg/kg): 30.4 µg/mL
- Mean weight-adjusted CLss ([2]; 3 mg/kg): 17.0 mL/h/kg
- Cmax ([2]; 4 mg/kg): 43.5 µg/mL
- Mean weight-adjusted CLss ([2]; 4 mg/kg): 14.2 mL/h/kg
- Mean AUCtau ([2]; 3 mg/kg): 190.5 µg·h/mL
- Mean AUCtau ([2]; 4.0 mg/kg): 301.9 µg·h/mL
- Cmax ([3]; Study 2101, 3 mg/kg i.v. once daily, 6–11 years (n = 4), mean (SD), SD): 20.8 (4.1) µg/mL
- tmax ([3]; Study 2101, 3 mg/kg i.v. once daily, 6–11 years (n = 4), median): 1.1 h
- AUCtau [3, 7]: 191.8 to 300.1 µg·h/mL
- CLss [3, 7]: 344.8 to 625.7 mL/h
- CLss/wt [3, 7]: 10.0 to 15.4 mL/h/kg
- Cmax [3, 7]: 16.8 to 24.8 µg/mL
- tmax [3, 7]: 1.0 to 1.2 h
- CLss [3, 8]: 757.2 mL/h
- tmax [3, 8]: 1.1 h
- AUCtau [3, 9]: 158.9 to 240.1 µg·h/mL
- CLss [3, 9]: 512.6 to 944.2 mL/h
- CLss/wt [3, 9]: 9.5 to 19.0 mL/h/kg
- Cmax [3, 9]: 12.2 to 44.5 µg/mL
- tmax [3, 9]: 1.0 to 2.0 h
- CLss [3, 10]: 222.9 mL/h
- Cmax [3, 10]: 21.9 µg/mL
- AUCtau [3, 11]: 110.0 to 335.4 µg·h/mL
- CLss [3, 11]: 132.7 to 490.9 mL/h
- CLss/wt [3, 11]: 13.4 to 40.9 mL/h/kg
- Cmax [3, 11]: 8.4 to 28.7 µg/mL
- tmax [3, 11]: 1.0 to 2.1 h
- AUCtau [3, 12]: 264.4 µg·h/mL
- CLss [3, 12]: 332.1 mL/h
- Cmax [3, 12]: 20.2 µg/mL
- tmax [3, 12]: 2.1 h
- AUCtau [3, 13]: 245.7 to 325.2 µg·h/mL
- CLss [3, 13]: 255.3 to 384.7 mL/h
- CLss/wt [3, 13]: 13.8 to 18.3 mL/h/kg
- Cmax [3, 13]: 17.9 to 24.0 µg/mL
- tmax [3, 13]: 2.0 to 2.1 h
- AUCtau [3, 14]: 339.0 µg·h/mL
- CLss [3, 14]: 306.8 mL/h
- CLss/wt [3, 14]: 13.3 mL/h/kg
- Cmax [3, 14]: 24.9 µg/mL
- tmax [3, 14]: 1.1 h
- AUCtau [3, 15]: 339.0 µg·h/mL
- CLss [3, 15]: 306.8 mL/h
- CLss/wt [3, 15]: 13.3 mL/h/kg
- Cmax [3, 15]: 24.9 µg/mL
- tmax [3, 15]: 1.1 h
- CLss/wt, single child with highest value ([3]; Study 2101, 4.5 mg/kg, 2–5 years, single child, day 7): 40.9 mL/h/kg
- AUC(0-t) ([3]; human, plasma, iv, 4.5 mg/kg, Mean AUCtau, Study 2102): ~300 µg·h/mL
- Deaths considered related to micafungin treatment or to fungal infection ([4]; Studies 2101 and 2102): None
- Liver function abnormalities ([4]; Study 2101 (Table 3)): 4–6%
- AE leading to discontinuation [4, 16]: 0
- Any AE [4, 16]: 9 (69)
- Any SAE [4, 16]: 1 (8)
- Deaths [4, 16]: 0
- AE leading to discontinuation [4, 17]: 2 (17)
- Any AE [4, 17]: 11 (92)
- Any SAE [4, 17]: 3 (25)
- Deaths [4, 17]: 1 (8)
- AE leading to discontinuation [4, 18]: 1 (3)
- Any AE [4, 18]: 25 (81)
- Any SAE [4, 18]: 3 (10)
- Deaths [4, 18]: 0
- AE leading to discontinuation [4, 19]: 1 (5)
- Any AE [4, 19]: 16 (80)
- Any SAE [4, 19]: 2 (10)
- Deaths [4, 19]: 2 (10)
- AE leading to discontinuation ([4]; Study 2101, Total (n = 78)): 4 (5)
- Any AE ([4]; Study 2101, Total (n = 78)): 62 (80)
- Any SAE ([4]; Study 2101, Total (n = 78)): 9 (12)
- Deaths ([4]; Study 2101, Total (n = 78)): 3 (4)
- AEs that led to permanent discontinuation of micafungin ([4]; Study 2101, four children, all possibly or probably related): 5%
- Permanent discontinuation due to hypomagnesemia ([4]; Study 2101, n = 1/78): 1%
- Permanent discontinuation due to pyrexia ([4]; Study 2101, n = 1/78): 1%
- Permanent discontinuation due to infusion-associated symptoms ([4]; Study 2101, n = 2/78): 3%
- SAEs considered related to micafungin treatment ([4]; Study 2101, n = 2/78): 3%
- AE considered related to micafungin: hypomagnesemia ([4]; Study 2101, n = 5/78): 6%
- Children with SAEs who recovered with no residual effects ([4]; Study 2101, n = 6/9): 67%
- AE considered related to micafungin: pyrexia ([4]; Study 2101, n = 7/78): 9%
- AE considered related to micafungin: infusion-associated symptoms (hypotension, hypertension, cyanosis) ([4]; Study 2101, n = 9/78): 12%
- Children experiencing SAEs other than death ([4]; Study 2101, n = 9/78): 12%
- AE vomiting ([4]; Study 2101, n = 10/78): 13%
- AE hypokalemia ([4]; Study 2101, n = 11/78): 14%
- AE pyrexia ([4]; Study 2101, n = 15/78): 19%
- Children experiencing at least one AE ([4]; Study 2101, n = 62/78): 80%
- AE leading to discontinuation [4, 20]: 2 (22)
- Any AE [4, 20]: 9 (100)
- Any SAE [4, 20]: 5 (56)
- Deaths [4, 20]: 1 (11)
- SAEs considered related to micafungin treatment ([4]; Study 2102, n = 1/9 (pathological fracture, possibly related)): 11%
- Children with SAEs who recovered with no residual effects ([4]; Study 2102, n = 4/5): 80%
- Children experiencing SAEs other than death ([4]; Study 2102, n = 5/9): 56%
- Abnormal liver function tests (NOS) considered related to micafungin ([4]; Study 2102, one child of 9): 11%
- AEs that led to permanent discontinuation of micafungin ([4]; Study 2102, two children): 22%
- Tolerability ([4]; once-daily 3 mg/kg and 4.5 mg/kg, children and adolescents with proven, probable, or suspected Candida infection): well tolerated
- AUCtau ([5]; 100 mg/day): 101.6 µg·h/mL
- AUCtau ([5]; 150 mg/day): 166.7 µg·h/mL
